Columns and labels:
Assay in all cases: greenhouse pre-emergence herbicidal test
Assay type in all cases: in vivo
Settings in all cases: 250 g/ha, scale 0 to 100
Abutilon theophrasti = system: Abutilon theophrasti
Source text: (§1) The culture containers used were plastic flowerpots containing loamy sand with approximately 3.0% of humus as the substrate. The seeds of the test plants were sown separately for each species. For the pre-emergence treatment, the active ingredients, which had been suspended or emulsified in water, were applied directly after sowing by means of finely distributing nozzles. The containers were irrigated gently to promote germination and growth and subsequently covered with transparent plastic hoods until the plants had rooted. This cover caused uniform germination of the test plants, unless this had been impaired by the active ingredients. […] The test period extended over 2 to 4 weeks. During this time, the plants were tended, and their response to the individual treatments was evaluated. Evaluation was carried out using a scale from 0 to 100. 100 means no emergence of the plants, or complete destruction of at least the aerial moieties, and 0 means no damage, or normal course of growth.

Setaria faberi = system: Setaria faberi
Source text: as §1

Echinocloa crus-galli = system: Echinocloa crus-galli
Source text: (§2) The culture containers used were plastic flowerpots containing loamy sand with approximately 3.0% of humus as the substrate. The seeds of the test plants were sown separately for each species.
(§3) For the pre-emergence treatment, the active ingredients, which had been suspended or emulsified in water, were applied directly after sowing by means of finely distributing nozzles. The containers were irrigated gently to promote germination and growth and subsequently covered with transparent plastic hoods until the plants had rooted. This cover caused uniform germination of the test plants, unless this had been impaired by the active ingredients.
(§4) Depending on the species, the plants were kept at 10-25° C. or 20-35° C., respectively.
(§5) The test period extended over 2 to 4 weeks. During this time, the plants were tended, and their response to the individual treatments was evaluated.
(§6) Evaluation was carried out using a scale from 0 to 100. 100 means no emergence of the plants, or complete destruction of at least the aerial moieties, and 0 means no damage, or normal course of growth. A moderate herbicidal activity is given at values of at least 60, a good herbicidal activity is given at values of at least 70, and a very good herbicidal activity is given at values of at least 85.

Amaranthus retroflexus = system: Amaranthus retroflexus
Source text: as §2, §3, §4, §5, §6

Alopercurus myosuroides = system: Alopercurus myosuroides
Source text: as §2, §3, §4, §5, §6

| SMILES | herbicidal activity (Abutilon theophrasti) [%] | herbicidal activity (Setaria faberi) [%] | herbicidal activity (Echinocloa crus-galli) [%] | herbicidal activity (Amaranthus retroflexus) [%] | herbicidal activity (Alopercurus myosuroides) [%] |
| --- | --- | --- | --- | --- | --- |
| Cc1cccc(COc2cccc(F)c2Nc2nc(N)nc(C(C)(C)F)n2)c1 [Example 26] | 85 | 70 | 80 | – | – |
| CC(C)(F)c1nc(N)nc(Nc2c(F)cccc2OCc2ccccc2F)n1 [Example 27] | 100 | 100 | 100 | – | – |
| Nc1nc(Nc2c(F)cccc2OCc2ccccc2)nc(C2(F)CCCCC2)n1 [Example 31] | 85 | – | 100 | 75 | – |
| CC(C)(F)c1nc(N)nc(Nc2c(F)cccc2OCc2nc(C3CC3)no2)n1 [Example 42] | 80 | – | – | 100 | – |
| CC(C)(F)c1nc(N)nc(Nc2c(F)cccc2OCc2cc(F)cc(F)c2)n1 [Example 43] | 100 | – | 100 | 100 | – |
| CC(C)(F)c1nc(N)nc(Nc2c(F)cccc2OCc2cccc(Br)c2)n1 [Example 44] | 70 | 70 | – | – | – |
| CC(C)(F)c1nc(N)nc(Nc2c(F)cccc2OCc2cccc(Cl)c2)n1 [Example 47] | 100 | – | 80 | 100 | – |
| CC(C)(F)c1nc(N)nc(Nc2c(F)cc(F)cc2OCc2ccccc2)n1 [Example 60] | – | 100 | 100 | 100 | 98 |
| CC(C)(F)c1nc(N)nc(Nc2c(OCc3ccccc3)cc(F)c(F)c2F)n1 [Example 69] | – | 100 | 100 | 100 | 100 |
| CC(C)(F)c1nc(N)nc(Nc2c(F)cccc2OCc2ncco2)n1 [Example 70] | 100 | – | 100 | 100 | – |
| CCCC(F)c1nc(N)nc(Nc2c(F)cccc2OCc2ccccc2)n1 (centres unmarked) [Example 77] | 80 | 100 | 100 | – | – |
| COC(C)(C)c1nc(N)nc(Nc2c(F)cccc2OCc2ccccc2)n1 [Example 91] | – | 100 | 100 | 100 | 100 |
| CC(F)(F)c1nc(N)nc(Nc2c(F)cccc2OCc2ccccc2)n1 [Example 96] | – | 95 | 100 | 100 | 80 |
| COc1cccc(COc2cc(F)c(F)c(F)c2Nc2nc(N)nc(C(C)(C)F)n2)c1 [Example 98] | – | 100 | 100 | 90 | 80 |
| COc1ccccc1COc1cccc(F)c1Nc1nc(N)nc(C(C)(C)F)n1 [Example 100] | 80 | – | 100 | 100 | – |
| Cc1c(F)cccc1COc1cccc(F)c1Nc1nc(N)nc(C(C)(C)F)n1 [Example 102] | 85 | 100 | 100 | – | – |
| CC(C)(F)c1nc(N)nc(Nc2c(F)cccc2OCc2ccsc2Cl)n1 [Example 107] | – | 100 | 100 | 75 | 75 |
| CC(C)(F)c1nc(N)nc(Nc2c(OCc3ccccc3)ccc(F)c2F)n1 [Example 108] | – | 100 | 100 | 100 | 100 |
| CC(C)(F)c1nc(N)nc(Nc2c(C#N)cccc2OCc2ccccc2)n1 [Example 128] | 90 | 90 | – | 100 | – |
| CC(C)(F)c1nc(N)nc(Nc2c(F)cccc2OC(F)(F)c2cccc(F)c2)n1 [Example 130] | 100 | 100 | 100 | – | – |
| Cc1ccc(COc2c(F)ccc(F)c2Nc2nc(N)nc(C(C)(C)F)n2)cc1 [Example 141] | 98 | 100 | 100 | – | – |
| CC(C)(F)c1nc(N)nc(Nc2c(F)ccc(F)c2OCc2ccccc2F)n1 [Example 172] | 100 | 100 | 100 | – | – |

| SMILES | herbicidal activity (Abutilon theophrasti) [%] | herbicidal activity (Setaria faberi) [%] | herbicidal activity (Echinocloa crus-galli) [%] | herbicidal activity (Amaranthus retroflexus) [%] | herbicidal activity (Alopercurus myosuroides) [%] |
| --- | --- | --- | --- | --- | --- |
| COc1ccccc1COc1c(F)ccc(F)c1Nc1nc(N)nc(C(C)(C)F)n1 [Example 173] | 100 | – | 100 | 100 | – |
| Cc1ccc(F)c(Nc2nc(N)nc(C(C)(C)F)n2)c1OCc1ccccc1 [Example 175] | 85 | 95 | 100 | – | – |
| Cc1ccc(COc2c(F)cc(F)c(F)c2Nc2nc(N)nc(C(C)(C)F)n2)cc1 [Example 183] | 100 | 100 | 100 | – | – |
| COc1ccccc1COc1ccc(F)c(F)c1Nc1nc(N)nc(C(C)(C)F)n1 [Example 198] | 98 | 100 | 100 | – | – |
| CC(C)(C)c1nc(N)nc(Nc2c(F)c(F)cc(F)c2OCc2ccccc2)n1 [Example 200] | 100 | 100 | 100 | – | – |
| Nc1nc(Nc2c(F)cccc2OCc2ccccc2)nc(C(F)C2CCCC2)n1 (centres unmarked) [Example 202] | 80 | 85 | 80 | – | – |
| CC(C)(F)c1nc(N)nc(Nc2c(F)c(F)cc(F)c2OCc2ccc(Cl)cc2)n1 [Example 207] | 90 | 100 | 100 | – | – |
| CC(C)c1ccccc1COc1c(F)cc(F)c(F)c1Nc1nc(N)nc(C(C)(C)F)n1 [Example 208] | 90 | – | – | 80 | – |
| CC(C)(F)c1nc(N)nc(Nc2c(F)c(F)cc(F)c2OCc2cccc(Cl)c2)n1 [Example 217] | 98 | 100 | 100 | – | – |
| COCc1cccc(COc2c(F)cc(F)c(F)c2Nc2nc(N)nc(C(C)(C)F)n2)c1 [Example 219] | 100 | 100 | 85 | – | – |
| CC(C)(F)c1nc(N)nc(Nc2c(F)c(F)cc(Br)c2OCc2ccccc2)n1 [Example 222] | 98 | 100 | 100 | – | – |
| CC(C)(F)c1nc(N)nc(Nc2c(F)ccc(Br)c2OCc2ccccc2)n1 [Example 223] | 100 | 100 | 95 | – | – |
| COCc1ccccc1COc1c(F)cc(F)c(F)c1Nc1nc(N)nc(C(C)(C)F)n1 [Example 224] | 100 | 100 | 90 | – | – |
| CC(C)(F)c1nc(N)nc(Nc2c(F)c(F)cc(F)c2OCc2ccccc2Br)n1 [Example 232] | 100 | 100 | 100 | – | – |
| COC(C)c1nc(N)nc(Nc2c(F)c(F)cc(F)c2OCc2ccccc2Cl)n1 (centres unmarked) [Example 243] | 85 | 85 | 85 | – | – |
| CC(C)(Cl)c1nc(N)nc(Nc2c(F)c(F)cc(F)c2OCc2ccccc2)n1 [Example 246] | 100 | – | 100 | 100 | – |
| COC(C)(C)c1nc(N)nc(Nc2c(F)c(F)cc(F)c2OCc2ccccc2F)n1 [Example 248] | 100 | – | 100 | 100 | – |
| COC(C)(C)c1nc(N)nc(Nc2c(F)c(F)cc(F)c2OCc2cccc(F)c2)n1 [Example 249] | 100 | 100 | 100 | – | – |
| COC(C)(C)c1nc(N)nc(Nc2c(F)c(F)cc(F)c2OCc2ccc(F)cc2)n1 [Example 250] | 100 | – | 100 | 100 | – |
| COC(C)(C)c1nc(N)nc(Nc2c(F)c(F)cc(F)c2OCc2ccccc2Cl)n1 [Example 251] | 98 | 100 | 95 | – | – |
| CC(C)c1nc(N)nc(Nc2c(F)c(F)cc(F)c2OCc2ccccc2)n1 [Example 254] | 100 | 100 | 100 | – | – |
| CC(C)(F)c1nc(N)nc(Nc2c(F)cccc2OCc2ccccc2)n1 [Example 257] | 100 | – | – | – | – |
